In patent publication US11059815B2, “Synthesis of small molecule histone deacetylase 6 degraders, compounds formed thereby, and pharmaceutical compositions containing them” (Wisconsin Alumni Research Foundation, priority 2018, dated 2021):

System: IKZF1/3
Assay: Western blot of IKZFs in MM1S cells
Assay type: cell-based, human
Experimental: FIGS. 10A and 10B are western blot analysis of MM1S cells treated with selected candidates from C4-lined series (FIG. 10A) and C5-lined series (FIG. 10B) for 6 h.
FIGS. 12A, 12B, and 12C are a series of western blots showing that degrader 12d selectively promotes HDAC6 degradation in MM1S cells.
As discussed before, pomalidomide and its analogues are known to activate CRBN's E3 ligase activity for the degradation of IKZFs. […] IKZFs regulate the expression of interferon regulatory factor 4 (IRF4) and c-Myc to affect the proliferation of multiple myeloma (MM). […] PROTACs with IKZF degradation activity have been reported in a number of cases and the IKZFs are often considered as “off-targets” during the development of these PROTACs. The results presented here indicate that the IKZF degradation activity can be impacted by the linker position and the functional group next to the phthalimide ring. In the studies, the triazole ring linked to C4 position likely contributed to the induced interaction between CRBN and IKZFs.
To evaluate the activity and selectivity of 12d, a full dose response experiment was performed with compound concentrations ranging from 0.3 nM to 10 μM in MM1S cells (FIG. 12A) for several HDACs, IKZFs, and Ac-tubulin. […] Degrader 12d reduced HDAC6 protein content at as low as 3 nM and achieved maximal effects around 30 nM. […] See Douglass et al. 2013, supra. The degradation of IKZFs started from 30 nM and was dose-dependent. It is interesting to see the more efficient degradation of HDAC6, which requires the formation of ternary complex, than that of IKZFs, which only requires the formation of binary complex. In addition to the distinct mechanism, the different turnover rates of HDAC6 and IKZFs may also contribute to the observed results. The acetylated tubulin level was also dose-dependent. At higher concentrations (3 μM and 10 μM), tubulin acetylation was not […] in response to recovered HDAC6 expression by “hook effect”. The elevated tubulin acetylation at higher concentrations was likely due to the combination of HDAC6 degradation and HDAC6 inhibition.
To probe the efficiency of 12d, MM1S was treated with 100 nM 12d and the change of HDAC6 protein level was monitored by time. The HDAC6 degradation started around 1 h and reached maximal degradation effect at 4 h. The degradation of IKZFs was only observed after 4 h. Meanwhile, HDAC1 was not affected and the acetylation of tubulin was accumulated by time. […] HDAC6 expression was monitored for 48 h. […]
When the cells reached 90% confluence, they were harvested and plated 1×10^6 cells per well in 6-well plate. […] Protein concentration was measured by using the Pierce BCA protein assay (Thermo Fisher Scientific). […]

CCCCN(Cc1ccc(C(=O)NO)cc1)C(=O)Nc1ccc(OCCCCCn2cc(CNc3cccc4c3C(=O)N(C3CCC(=O)NC3=O)C4=O)nn2)cc1 (stereo not shown) [Compound 12d, 4-((1-butyl-3-(4-((5-(4-(((2-(2,6-dioxopiperidin-3-yl)-1,3-dioxoisoindolin-4-yl)amino)methyl)-1H-1,2,3-triazol-1-yl)pentyl)oxy)phenyl)ureido)methyl)-N-hydroxybenzamide]
IKZF3 recovery after wash-out (100 nM for 6 h, washed with PBS, after 12 h): quickly recovered | induced degradation of IKZF1/3 (100 nM, 6 h, MM1S): retained the induced degradation | time after which degradation of IKZFs was observed (100 nM, MM1S): > 4 h | concentration from which degradation of IKZFs started (12d dose response 0.3 nM to 10 μM, MM1S): ≥ 30 nM
